In experiment [1] the target is T1, YES1 (Homo sapiens (Human), UniProt P07947). The experiment can be described thus: Kinase binding assay CaPBA. As to conditions: read-out: IC50 Activity Levels Against FYN isoforms, YES1 and MEK5: YES1. From the text:
4. Kinase Binding Assay CaPBA:

The next experiment deals with MEK7 (Homo sapiens (Human), UniProt O14733). The experiment can be described thus: KINOMEscan competition binding assay (Kd). As to conditions: read-out: Kd Values Against MEK Kinases Isoforms: MEK7. The procedure: (§1) KINOMEscan™ is based on a competition binding assay that quantitatively measures the ability of a test compound of the invention to compete with an immobilized, active-site directed ligand. The Kinase assay is performed by combining three components: DNA-tagged kinase; immobilized ligand; and a test compound. The ability of the test compound to compete with the immobilized ligand is measured via quantitative PCR of the DNA tag.
(§2) For most assays, kinase-tagged T7 phage strains were prepared in an E. coli host derived from the BL21 strain. E. coli were grown to log-phase and infected with T7 phage and incubated with shaking at 32° C. until lysis. The lysates were centrifuged and filtered to remove cell debris. The remaining kinases were produced in HEK-293 cells and subsequently tagged with DNA for qPCR detection. Streptavidin-coated magnetic beads were treated with biotinylated small molecule ligands for 30 minutes at room temperature to generate affinity resins for kinase assays. The liganded beads were blocked with excess biotin and washed with blocking buffer (SeaBlock (Pierce), 1% BSA, 0.05% Tween 20, 1 mM DTT) to remove unbound ligand and to reduce nonspecific binding. […] All reactions were performed in polystyrene 96-well plates in a final volume of 0.135 ml. […] The kinase concentration in the eluates was measured by qPCR.

The target of another experiment is BRAF (Homo sapiens (Human), UniProt P15056). The experiment can be described thus: KINOMEscan competition binding assay (Kd). As to conditions: read-out: Kd Values Against MAPK Pathway Kinases: BRAF. The method, then: as §1, §2
Chain of BRAF (P15056 whole entry, canonical isoform): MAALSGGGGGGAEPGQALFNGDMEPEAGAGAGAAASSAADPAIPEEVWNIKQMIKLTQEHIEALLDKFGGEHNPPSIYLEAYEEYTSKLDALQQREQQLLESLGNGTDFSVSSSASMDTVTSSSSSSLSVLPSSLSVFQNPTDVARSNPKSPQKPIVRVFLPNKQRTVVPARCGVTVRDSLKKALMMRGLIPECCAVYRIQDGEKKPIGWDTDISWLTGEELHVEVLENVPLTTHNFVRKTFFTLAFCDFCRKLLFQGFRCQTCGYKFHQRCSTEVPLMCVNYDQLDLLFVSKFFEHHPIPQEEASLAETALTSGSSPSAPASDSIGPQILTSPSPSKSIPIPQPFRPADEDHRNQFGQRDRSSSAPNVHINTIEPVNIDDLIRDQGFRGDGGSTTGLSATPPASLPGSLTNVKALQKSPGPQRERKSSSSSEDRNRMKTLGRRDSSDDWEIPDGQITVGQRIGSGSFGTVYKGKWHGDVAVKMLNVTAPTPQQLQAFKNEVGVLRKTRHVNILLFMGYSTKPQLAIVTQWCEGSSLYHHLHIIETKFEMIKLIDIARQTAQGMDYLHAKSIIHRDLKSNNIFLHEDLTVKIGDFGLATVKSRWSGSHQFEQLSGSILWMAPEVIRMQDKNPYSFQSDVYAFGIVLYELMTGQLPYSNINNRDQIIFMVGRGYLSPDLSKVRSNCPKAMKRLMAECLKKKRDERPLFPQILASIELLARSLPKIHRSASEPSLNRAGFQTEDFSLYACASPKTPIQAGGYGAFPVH
For the next experiment, the target named is MEK6 (Homo sapiens (Human), UniProt P52564). Description: KINOMEscan competition binding assay (Kd). As to conditions: read-out: Kd Values Against MEK Kinases Isoforms: MEK6. The procedure: as §1, §2
Chain of MEK6 (P52564 whole entry, canonical isoform): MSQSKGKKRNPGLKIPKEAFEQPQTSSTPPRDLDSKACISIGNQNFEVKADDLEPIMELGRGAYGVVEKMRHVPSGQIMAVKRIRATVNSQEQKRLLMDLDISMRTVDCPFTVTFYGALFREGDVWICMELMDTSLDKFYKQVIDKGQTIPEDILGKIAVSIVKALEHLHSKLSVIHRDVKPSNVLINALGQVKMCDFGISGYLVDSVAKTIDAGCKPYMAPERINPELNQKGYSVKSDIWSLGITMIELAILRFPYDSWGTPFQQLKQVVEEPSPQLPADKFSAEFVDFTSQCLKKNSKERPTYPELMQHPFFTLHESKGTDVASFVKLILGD
The target in the next experiment is SRC (Homo sapiens (Human), UniProt P12931). The experiment can be described thus: Radioisotope filter binding assay. The class given is biochemical. As to conditions: read-out: IC50 Activity Levels Against SRC Family Kinases: SRC. In outline: (§3)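 Direct radiometric format with unmodified substrate and no coupling enzymes. Test compound was incubated with enzyme for 20 min before [γ-33P]ATP addition, and phosphorylation proceeded 2 h at room temperature before P81 filter capture.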
Chain of SRC (P12931 whole entry, looked up): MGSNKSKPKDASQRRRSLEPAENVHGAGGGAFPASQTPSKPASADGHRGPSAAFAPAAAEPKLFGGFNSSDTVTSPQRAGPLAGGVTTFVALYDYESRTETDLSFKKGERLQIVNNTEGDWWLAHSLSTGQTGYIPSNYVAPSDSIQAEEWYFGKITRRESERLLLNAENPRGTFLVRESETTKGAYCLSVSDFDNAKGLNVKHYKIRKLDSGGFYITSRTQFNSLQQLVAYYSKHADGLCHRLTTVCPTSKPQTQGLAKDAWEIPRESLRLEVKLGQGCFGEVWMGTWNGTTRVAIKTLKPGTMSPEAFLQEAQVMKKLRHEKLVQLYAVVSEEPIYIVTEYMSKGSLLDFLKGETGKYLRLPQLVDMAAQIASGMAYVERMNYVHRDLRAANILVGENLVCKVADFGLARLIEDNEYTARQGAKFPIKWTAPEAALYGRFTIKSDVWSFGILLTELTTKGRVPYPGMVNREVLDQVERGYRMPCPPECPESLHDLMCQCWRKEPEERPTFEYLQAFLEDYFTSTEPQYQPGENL

Experiment [2] addresses T1, YES1. The experiment can be described thus: Radioisotope filter binding assay. As to conditions: read-out: IC50 Activity Levels Against SRC Family Kinases: YES1. The class given is biochemical. The procedure, abridged: as §3
In experiment [3] the target is T2, FGR (Homo sapiens (Human), UniProt P09769). Description: Radioisotope filter binding assay. Format: biochemical. As to conditions: read-out: IC50 Activity Levels Against SRC Family Kinases: FGR. In outline: as §3
T2 sequence (P09769 whole entry): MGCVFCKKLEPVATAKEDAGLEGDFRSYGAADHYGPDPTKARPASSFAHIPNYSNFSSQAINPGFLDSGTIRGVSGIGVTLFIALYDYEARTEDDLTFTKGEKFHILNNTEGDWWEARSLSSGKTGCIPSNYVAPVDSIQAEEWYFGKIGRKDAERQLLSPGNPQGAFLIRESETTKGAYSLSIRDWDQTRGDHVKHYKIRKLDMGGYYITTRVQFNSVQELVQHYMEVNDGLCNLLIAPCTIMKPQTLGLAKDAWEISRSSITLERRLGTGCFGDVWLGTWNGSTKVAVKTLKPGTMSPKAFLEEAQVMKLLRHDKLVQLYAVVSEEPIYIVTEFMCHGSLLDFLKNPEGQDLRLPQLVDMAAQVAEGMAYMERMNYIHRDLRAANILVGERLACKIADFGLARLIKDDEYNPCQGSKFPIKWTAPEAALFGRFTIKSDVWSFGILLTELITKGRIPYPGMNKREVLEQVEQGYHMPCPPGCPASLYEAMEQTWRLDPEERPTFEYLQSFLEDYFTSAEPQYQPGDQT
The next experiment addresses FLT3 (Homo sapiens (Human), UniProt P36888). Description: Radioisotope filter binding assay. The class given is biochemical. As to conditions: read-out: IC50 Activity Levels Against Type III NRT Kinases: FLT3. The procedure, abridged:
as §3

Another experiment addresses LYN (Homo sapiens (Human), UniProt P07948). The experiment can be described thus: Radioisotope filter binding assay. The class given is biochemical. As to conditions: read-out: IC50 Activity Levels Against SRC Family Kinases: LYN. In outline: as §3
The next experiment deals with HCK (Homo sapiens (Human), UniProt P08631). Description: Radioisotope filter binding assay. The class given is biochemical. As to conditions: read-out: IC50 Activity Levels Against SRC Family Kinases: HCK. In outline: as §3
Chain of HCK (P08631 whole entry): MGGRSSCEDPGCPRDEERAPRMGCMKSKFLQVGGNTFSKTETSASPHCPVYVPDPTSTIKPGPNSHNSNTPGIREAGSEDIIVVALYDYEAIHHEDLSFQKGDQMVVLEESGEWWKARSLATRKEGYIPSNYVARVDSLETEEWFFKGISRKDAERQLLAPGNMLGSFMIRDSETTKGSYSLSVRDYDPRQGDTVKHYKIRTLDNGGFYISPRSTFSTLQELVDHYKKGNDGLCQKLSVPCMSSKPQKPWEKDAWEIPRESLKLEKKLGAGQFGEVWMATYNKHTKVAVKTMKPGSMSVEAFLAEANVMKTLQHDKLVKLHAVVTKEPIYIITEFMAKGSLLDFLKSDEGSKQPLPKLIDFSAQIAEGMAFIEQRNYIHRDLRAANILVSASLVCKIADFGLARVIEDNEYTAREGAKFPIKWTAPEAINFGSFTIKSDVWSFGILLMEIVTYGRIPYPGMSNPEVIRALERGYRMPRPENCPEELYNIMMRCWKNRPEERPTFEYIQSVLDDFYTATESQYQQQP
The target in experiment [4] is T1, YES1. The experiment can be described thus: Rabbit reticulocyte lysate assay (KinaseSeeker competition binding). As to conditions: read-out: IC50 Activity Levels Against SRC Family Kinases: YES1. The method, then:
(§4) 1. Rabbit Reticulocyte Lysate Assay Design:
(§5) KinaseSeeker is a homogeneous competition binding assay where the displacement of an active site dependent probe by an inhibitor is measured by a change in luminescence signal. Luminescence readout translates into a highly sensitive and robust assay with low background and minimal interference from test compounds.
(§6) 10 mM stock solutions of test compounds were serially diluted in DMSO to make assay stocks. Prior to initiating IC50 determinations, the test compounds were evaluated for false positive against split-luciferase.
(§7) Each test compound was screened in duplicate against target kinase at 7 different concentrations. For kinase assays, Cfluc-kinase was translated along with Fos-Nfluc using a cell-free system (rabbit reticulocyte lysate) at 30° C. for 90 min. 24 uL aliquot of this lysate containing either 1 uL of DMSO (for no-inhibitor control) or compound solution in DMSO was incubated for 30 minutes at room temperature followed by 1 hour in presence of a kinase specific probe. 80 uL of luciferin assay reagent was added to each solution and luminescence was immediately measured on a luminometer.
(§8) The % Inhibition and % Activity Remaining was calculated using the following equation: % Inhibition=[(ALUControl−ALUSample)/ALUControl]×100 % Activity Remaining=100−% Inhibition
(§9) The % Activity was plotted against compound concentration and the IC50 was determined for each compound using a 7-point curve (Jester, B. W.; et. al. J. Am. Chem. Soc. 2010, 132, 11727-11735. Jester, B. W., et. al. J. Med. Chem. 2012, 55, 1526-1537). Biological activity of representative compounds of the disclosure are described in Table 5.

The target of experiment [5] is T2, FGR. The description is as above. As to conditions: read-out: IC50 Activity Levels Against SRC Family Kinases: FGR. The procedure:
as §4, §5, §6, §7, §8, §9

T1 sequence (P07947 whole entry, canonical isoform): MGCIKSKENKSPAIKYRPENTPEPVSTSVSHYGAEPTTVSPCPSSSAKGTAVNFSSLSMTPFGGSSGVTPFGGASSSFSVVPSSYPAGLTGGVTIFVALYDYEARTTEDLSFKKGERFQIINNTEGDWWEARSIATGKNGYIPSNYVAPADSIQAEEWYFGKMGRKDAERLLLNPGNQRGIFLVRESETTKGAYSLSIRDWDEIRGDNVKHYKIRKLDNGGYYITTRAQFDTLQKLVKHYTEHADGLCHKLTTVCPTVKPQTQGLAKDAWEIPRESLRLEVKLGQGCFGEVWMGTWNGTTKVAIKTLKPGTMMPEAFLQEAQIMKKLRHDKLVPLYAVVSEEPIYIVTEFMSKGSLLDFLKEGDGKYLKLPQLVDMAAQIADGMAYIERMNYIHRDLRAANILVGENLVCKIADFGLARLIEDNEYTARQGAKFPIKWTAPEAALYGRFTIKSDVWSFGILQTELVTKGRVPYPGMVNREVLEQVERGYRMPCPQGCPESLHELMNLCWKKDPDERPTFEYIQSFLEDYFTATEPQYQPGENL
Chain of FLT3 (P36888 27-993): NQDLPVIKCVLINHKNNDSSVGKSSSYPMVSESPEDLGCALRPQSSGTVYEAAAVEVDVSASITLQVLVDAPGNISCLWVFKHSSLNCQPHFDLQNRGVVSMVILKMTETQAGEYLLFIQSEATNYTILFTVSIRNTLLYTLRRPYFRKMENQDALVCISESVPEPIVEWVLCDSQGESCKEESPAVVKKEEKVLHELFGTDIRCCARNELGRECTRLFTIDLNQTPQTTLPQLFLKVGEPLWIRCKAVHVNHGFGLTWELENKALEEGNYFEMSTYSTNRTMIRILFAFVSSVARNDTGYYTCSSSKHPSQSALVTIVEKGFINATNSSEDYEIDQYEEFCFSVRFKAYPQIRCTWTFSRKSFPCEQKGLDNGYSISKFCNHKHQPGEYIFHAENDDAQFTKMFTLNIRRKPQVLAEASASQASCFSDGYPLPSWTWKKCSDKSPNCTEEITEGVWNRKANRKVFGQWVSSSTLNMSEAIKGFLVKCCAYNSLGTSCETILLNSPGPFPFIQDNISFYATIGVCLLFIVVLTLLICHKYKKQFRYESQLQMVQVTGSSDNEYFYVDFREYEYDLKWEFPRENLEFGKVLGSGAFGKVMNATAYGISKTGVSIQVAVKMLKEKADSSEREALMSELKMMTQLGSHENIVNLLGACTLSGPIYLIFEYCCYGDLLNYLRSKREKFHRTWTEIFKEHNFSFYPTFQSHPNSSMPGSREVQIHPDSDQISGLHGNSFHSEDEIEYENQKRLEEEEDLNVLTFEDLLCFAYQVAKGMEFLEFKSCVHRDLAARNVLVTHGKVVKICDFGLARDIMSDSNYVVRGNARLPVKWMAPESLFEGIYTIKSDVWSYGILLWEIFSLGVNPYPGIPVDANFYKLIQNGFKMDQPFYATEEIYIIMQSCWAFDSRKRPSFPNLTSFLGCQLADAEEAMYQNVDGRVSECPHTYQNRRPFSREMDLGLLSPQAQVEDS
Chain of LYN (P07948 whole entry): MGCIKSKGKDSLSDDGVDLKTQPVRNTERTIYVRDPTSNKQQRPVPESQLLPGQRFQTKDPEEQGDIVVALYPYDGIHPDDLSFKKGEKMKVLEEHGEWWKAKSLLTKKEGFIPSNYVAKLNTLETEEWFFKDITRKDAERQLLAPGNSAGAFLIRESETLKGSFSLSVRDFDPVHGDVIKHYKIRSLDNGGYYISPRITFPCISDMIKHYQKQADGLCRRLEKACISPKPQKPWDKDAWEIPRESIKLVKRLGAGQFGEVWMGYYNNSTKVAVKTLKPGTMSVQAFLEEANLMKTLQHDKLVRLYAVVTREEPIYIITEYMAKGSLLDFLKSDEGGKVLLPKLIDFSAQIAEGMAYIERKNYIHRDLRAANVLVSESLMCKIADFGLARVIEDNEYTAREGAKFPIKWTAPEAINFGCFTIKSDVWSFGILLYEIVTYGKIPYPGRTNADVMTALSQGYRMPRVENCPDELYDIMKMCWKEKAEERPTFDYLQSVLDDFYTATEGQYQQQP

The IC50 is the point on the concentration scale where inhibition reaches its midpoint. Usually Kd stands for a measure of binding affinity in units of concentration. As to `Nc1ncnc2c1c(-c1ccc(Oc3ccccc3)cc1)nn2C[C@H]1SSC[C@H]1O` [46 B.], the IC50 is less than 5 nM at YES1 [1]; 5 to 99 nM on SRC; less than 5 nM at YES1 [2]; less than 5 nM on FGR [3]; 5 to 99 nM at FLT3; 5 to 99 nM on LYN. Also, the IC50 on HCK lay within 5 to 99 nM; on YES1 [4], 5 to 99 nM; on FGR [5] it was 100 to 999 nM. Besides, the Kd at MEK7, at BRAF and at MEK6 was 1000 to 10000 nM in each case.
For the compound `Nc1ncnc2c1c(-c1ccc(Oc3ccccc3)cc1)nn2C[C@H]1SSC[C@@H]1O` [43 B.], the IC50 on YES1 [1] is less than 5 nM; at SRC, 5 to 99 nM; on YES1 [2], less than 5 nM; at FGR [3] it was less than 5 nM; on FLT3, 100 to 999 nM; on LYN, 5 to 99 nM. Further, the IC50 on HCK is less than 5 nM; at YES1 [4], 100 to 999 nM; at FGR [5] it was 100 to 999 nM.
For the compound `Nc1ncnc2c1c(-c1ccc(Oc3ccccc3)cc1)nn2C[C@@H]1SSC[C@H]1O` [43 A.], the IC50 at YES1 [1] is less than 5 nM; on SRC it was 100 to 999 nM; at YES1 [2] it was less than 5 nM; on FGR [3] it was less than 5 nM; at FLT3 it was 5 to 99 nM; at LYN, 5 to 99 nM. Besides, the IC50 on HCK is less than 5 nM.
Consider `Nc1ncnc2c1c(-c1ccc(Oc3ccccc3)cc1)nn2C[C@@H]1SSC[C@@H]1O` [46 A.], for which the Kd at MEK7, on BRAF and at MEK6 was 1000 to 10000 nM throughout. Besides, the IC50 at SRC was 100 to 999 nM; at YES1 [2] it was less than 5 nM; on FGR [3], 5 to 99 nM; at FLT3 it was 5 to 99 nM; at LYN, 100 to 999 nM; on HCK it was 5 to 99 nM.
